These results are taken from ChEMBL document CHEMBL4354877, “MymA Bioactivated Thioalkylbenzoxazole Prodrug Family Active against Mycobacterium tuberculosis” (J Med Chem, 2020).

Values after ≈ are worked out from the molar mass of the structure shown.

Series [1] concerns Mycobacterium tuberculosis. In words: Antimycobacterial activity against Mycobacterium tuberculosis H37Rv intracellular forms infected in human THP1 cells assessed as inhibition of microbial growth incubated for 5 days by luciferase reporter gene assay. The format is functional. The following applies: THP-1, 120 h.
The nature of series [2]: Intrinsic clearance in human liver microsomes at 0.5 uM incubated for 45 mins in presence of NADPH by LC-MS/MS analysis. The following applies: 0.75 h. Type of series: ADME, Microsome.
Series [3] can be described thus: Intrinsic clearance in mouse liver microsomes at 0.5 uM incubated for 45 mins in presence of NADPH by LC-MS/MS analysis. The format is ADME, Microsome. The following applies: 0.75 h.
The subject of series [4] is Mycobacterium tuberculosis. Kind of series: Antimycobacterial activity against Mycobacterium tuberculosis extracellular forms assessed as inhibition of microbial growth. The format is functional.
Series [5] can be described thus: Kinetic aqueous solubility in pH 7.4 PBS incubated for 1 hr by CLND assay. The format is physicochemical. The following applies: read-out: Kinetic_solubility.
A short description of series [6]: Permeability at pH 7.4 incubated for 4 hrs by PAMPA method. The following applies: read-out: permeability. The format is ADME.
Series [7] in a line: Solubility in pH 6.5 FaSSIF incubated for 4 hrs by HPLC-UV based assay. The format is physicochemical.
For another series, the system named is HepG2. Kind of series: Cytotoxicity in human HepG2 cells assessed as reduction in cell viability incubated for 48 hrs by Cell-titer Glo kit based assay. The following applies: HepG2, 48 h.

For `CCNC(=O)CCSc1nc2cc(Cl)ccc2o1`, in series [1], the IC90 was more than 50 µM.
Take `O=C1CCCN1CCCSc1nc2cc(Cl)ccc2o1`: the figures for the CLH in series [2] and in series [3] were 4.8 mL/min/g and 51 mL/min/g, respectively. In addition, the IC90 in series [1] came to 6.5 µM.
In the case of `O=C(CCSc1nc2c(Cl)cccc2o1)N1CCCC1`, the results for the CLH in series [2] and in series [3] were 15.8 mL/min/g and 97.9 mL/min/g, respectively. For the same molecule, the IC90 in series [1] came out at 24.3 µM.
As for `O=C(CCSc1nc2cc(Cl)ccc2o1)N1CCC(F)(F)C1`, the CLH in series [2] worked out at 11.3 mL/min/g; in series [3], 83.6 mL/min/g. In series [1], the IC90 stood at 1.1 µM.
For the molecule `O=C(CCSc1nc2cc(Cl)ccc2o1)N1CCS(=O)(=O)C1`, the results for the CLH in series [2] and in series [3] were 1.7 mL/min/g and 8.9 mL/min/g, respectively. The IC90 in series [1] is more than 50 µM.
In the case of `O=C(CCSc1ncc(-c2ccccc2)o1)N1CCCC1`, the CLH in series [2] worked out at 11 mL/min/g; in series [3] it was 176.6 mL/min/g. The IC90 in series [1] is more than 50 µM.
Turning to `CC1CCCN1C(=O)CCSc1nc2cc(Cl)ccc2o1` (racemic), the CLH in series [2] stood at 8.5 mL/min/g; in series [3] it was 98 mL/min/g. Moreover, the IC90 in series [1] was determined as 25.5 µM.
As to `O=C(CCCSc1nc2cc(Cl)ccc2o1)N1CCCC1`, the CLH in series [2] amounted to 3.4 mL/min/g; in series [3], 124.8 mL/min/g. Further, the IC90 in series [1] is 2.3 µM.
As for `O=C(CSc1nc2cc(Cl)ccc2o1)N1CCCC1`, the CLH in series [2] was 1.6 mL/min/g; in series [3] it was 153.6 mL/min/g. For the same molecule, in series [1], the IC90 was determined as 36 µM.
For `COc1ccc2oc(SCCC(=O)N3CCCC3)nc2c1`, the CLH in series [2] was 6.1 mL/min/g; in series [3] it was 197.8 mL/min/g. For the same molecule, the IC90 in series [1] turned out to be 4 µM.
The like results for `O=C(CCSc1nc2cccc(Cl)c2o1)N1CCCC1` were, in that order, 13.5 mL/min/g, 121.9 mL/min/g and 2.7 µM.
Consider `O=C(CCSc1nc2cc(N3CCOCC3)ccc2o1)N1CCCC1`, for which the CLH was found to be 1.1 mL/min/g in series [2] and 18.7 mL/min/g in series [3]. Besides, the IC90 in series [1] came to 27.2 µM.
On to `CN1CCN(C(=O)CCSc2nc3cc(Cl)ccc3o2)CC1`, for which the CLH in series [2] came to 1.5 mL/min/g; in series [3], 41.5 mL/min/g. Also, the IC90 in series [1] worked out at 17.2 µM.
The like results for `O=S1(=O)CCCN1CCCSc1nc2cc(Cl)ccc2o1` were, in that order, 4.7 mL/min/g, 115.2 mL/min/g and 7.7 µM.
As for `O=C(CCSc1nc2cc(Cl)ccc2o1)N1CCS(=O)(=O)CC1`, the CLH in series [2] was 0.4 mL/min/g; in series [3], 2.3 mL/min/g. Also, the IC90 in series [1] is more than 50 µM.
With `CCN(CC)C(=O)CCSc1nc2cc(Cl)ccc2o1`, the CLH is 5.9 mL/min/g in series [2] and 107.5 mL/min/g in series [3]. Moreover, in series [1], the IC90 turned out to be 3.9 µM.
The like results for `O=C(CCSc1nc2cnccc2o1)N1CCCC1` were, in that order, 0.6 mL/min/g, 3.1 mL/min/g and 35.1 µM.
For `O=C(CCNc1nc2cc(Cl)ccc2o1)N1CCCC1`, the CLH in series [2] came out at 2.3 mL/min/g; in series [3] it was 81.1 mL/min/g. The IC90 in series [1] was more than 50 µM.
In the case of `O=C(CCSc1nc(-c2ccccc2)co1)N1CCCC1`, the CLH in series [2] was 20.9 mL/min/g. Besides, the IC90 in series [1] was more than 50 µM.
Turning to `O=C(CCSc1nc2cc(Cl)ccc2o1)N1CCC1`, the CLH in series [2] was 3.7 mL/min/g; in series [3] it was 17.9 mL/min/g. Also, the IC90 in series [1] was more than 50 µM.
With `O=C(CCSc1nc2cc(Cl)ccc2o1)NC1CCCC1`, in series [2], the CLH stood at 11.3 mL/min/g. Also, in series [1], the concentration for an effect of 90% (IC90) was more than 50 µM.
For `O=C(CCSc1nc2cc(Cl)ccc2s1)N1CCCC1`, the values for the CLH in series [2] and in series [3] were 15 mL/min/g and 67 mL/min/g, respectively. Besides, the IC90 in series [1] amounted to 15.6 µM.
The like results for `O=C(CCSc1nc2cc(F)ccc2o1)N1CCS(=O)(=O)CC1` were, in that order, 0.4 mL/min/g, 1.5 mL/min/g and more than 50 µM.
Take `CN(C)C(=O)CCSc1nc2cc(Cl)ccc2o1`: the figures for the CLH in series [2] and in series [3] were 2.7 mL/min/g and 41.8 mL/min/g, respectively. Besides, the concentration for an effect of 90% (IC90) in series [1] worked out at 30 µM.
`CS(=O)(=O)C1CCN(C(=O)CCSc2nc3cc(Cl)ccc3o2)C1` (racemic): the results for the CLH in series [2] and in series [3] were less than 0.4 mL/min/g and 2.1 mL/min/g, respectively. Also, the IC90 in series [1] was more than 50 µM.
With `O=C(CCSc1nc2ccc(Cl)cc2o1)N1CCCC1`, the CLH in series [2] was 6.6 mL/min/g; in series [3], 109.4 mL/min/g. Further, the IC90 in series [1] was 1.6 µM.
Regarding `CC1CCN(C(=O)CCSc2nc3cc(Cl)ccc3o2)C1` (stereo not drawn), the results for the CLH in series [2] and in series [3] were 10.1 mL/min/g and 90.7 mL/min/g, respectively. Besides, the 90% effect concentration (IC90) in series [1] was found to be 3.1 µM.
`Clc1ccc2oc(SCCCN3CCCC3)nc2c1`: the CLH in series [2] is 1.9 mL/min/g; in series [3], 10.4 mL/min/g. Also, the IC90 in series [1] came out at 42.6 µM.
In the case of `O=C(CCSc1nc2ncccc2o1)N1CCCC1`, the CLH in series [2] turned out to be 0.7 mL/min/g; in series [3] it was 18.6 mL/min/g. The IC90 in series [1] is more than 50 µM.
With `CN(CCC(=O)N1CCCC1)c1nc2cc(Cl)ccc2o1`, the CLH in series [2] came to 1.9 mL/min/g. For the same molecule, the IC90 in series [1] is more than 50 µM.
On to `CC(CC(=O)N1CCCC1)Sc1nc2cc(Cl)ccc2o1` (stereo not drawn), for which the CLH in series [2] is 8.6 mL/min/g; in series [3], 165.1 mL/min/g. In addition, the IC90 in series [1] worked out at 4 µM.
Take `CN(C(=O)CCSc1nc2cc(F)ccc2o1)C1CCS(=O)(=O)CC1`: the CLH was less than 0.4 mL/min/g in series [2] and 0.6 mL/min/g in series [3]. In addition, in series [1], the IC90 was more than 50 µM.
With `O=C(CCSc1nc2cc(Cl)ccc2o1)N1CCOCC1`, the CLH in series [2] was 2.2 mL/min/g; in series [3], 36.5 mL/min/g. Further, the IC90 in series [1] was determined as 11.4 µM.
As for `O=C(CCCc1nc2cc(Cl)ccc2o1)N1CCCC1`, the values for the CLH in series [2] and in series [3] were 1.4 mL/min/g and 115.2 mL/min/g, respectively. The IC90 in series [1] was more than 50 µM.
Consider `Cc1ccc2oc(SCCC(=O)N3CCCC3)nc2c1`, for which, in series [2], the CLH came to 9.3 mL/min/g. The IC90 in series [1] worked out at 8.4 µM.
Take `CS(=O)(=O)N1CCN(C(=O)CCSc2nc3cc(Cl)ccc3o2)CC1`: the CLH in series [2] was determined as 0.6 mL/min/g; in series [3], 1.4 mL/min/g. The IC90 in series [1] was 20.4 µM.
The like results for `O=C(CCSc1nc2cc(F)c(F)cc2o1)N1CCCC1` were, in that order, 6.5 mL/min/g, 45.9 mL/min/g and 1.3 µM.
On to `CN(C(=O)CCSc1nc2cc(Cl)ccc2o1)C1CCS(=O)(=O)C1` (stereo not drawn), for which the CLH amounted to 1.5 mL/min/g in series [2] and 0.8 mL/min/g in series [3]. For the same molecule, the IC90 in series [1] stood at 25.4 µM.
For `O=C(CCSc1nc2cc(F)ccc2o1)N1CCCC1`, the results for the CLH in series [2] and in series [3] were 5.2 mL/min/g and 115.2 mL/min/g, respectively. The IC90 in series [1] was 1.6 µM.
As to `O=C(CCSc1nc2ccncc2o1)N1CCCC1`, the figures for the CLH in series [2] and in series [3] were 0.9 mL/min/g and 5.7 mL/min/g, respectively. Further, the IC90 in series [1] is more than 50 µM.
In the case of `O=C(CCSc1nc2cc(Cl)ccc2o1)N1CCCCC1`, the CLH is 10.7 mL/min/g in series [2] and 127.7 mL/min/g in series [3]. Further, the IC90 in series [1] came to 2.5 µM.
On to `O=C(CCSc1nc2cc(Cl)ccc2[nH]1)N1CCCC1`, for which the CLH in series [2] is 9.2 mL/min/g; in series [3] it was 56.8 mL/min/g. The IC90 in series [1] was more than 50 µM.
`CS(=O)(=O)C1CCN(C(=O)CCSc2nc3cc(Cl)ccc3o2)CC1`: the CLH in series [2] turned out to be 0.5 mL/min/g; in series [3], 2.6 mL/min/g. Moreover, the IC90 in series [1] is more than 50 µM.
For `O=C(CSCc1nc2cc(Cl)ccc2o1)N1CCCC1`, the CLH in series [2] was 1.5 mL/min/g; in series [3], 71.8 mL/min/g. In series [1], the IC90 was more than 50 µM.
Turning to `CSc1nc2cc(Cl)ccc2o1`, the CLH was 19 mL/min/g in series [2] and more than 46.1 mL/min/g in series [3]. Besides, in series [1], the IC90 is more than 50 µM.
Take `O=C(CCSc1nc2ccccc2o1)N1CCCC1`: the values for the CLH in series [2] and in series [3] were 5.1 mL/min/g and 161.2 mL/min/g, respectively. For the same molecule, the IC90 in series [1] was 4.4 µM.
For `Cc1nc(SCCC(=O)N2CCCC2)oc1C`, the CLH in series [2] was less than 0.4 mL/min/g; in series [3] it was 3.9 mL/min/g. For the same molecule, the IC90 in series [1] was more than 50 µM.
With `CN(C(=O)CCSc1nc2cc(Cl)ccc2o1)C1CCS(=O)(=O)CC1`, the figures for the CLH in series [2] and in series [3] were less than 0.4 mL/min/g and 0.7 mL/min/g, respectively. In addition, the IC90 in series [1] amounted to 7.7 µM. For the same molecule, the MIC in series [4] is 40 µM. Further, in series [5], the solubility kinetic at 1 h was more than 328 µM. Besides, in series [6], the Papp at 4 h is 44 ×10⁻⁶ cm/s. Moreover, in series [7], the concentration in solution (solubility at 4 h) came to 178 µg/mL (≈ 442 µM). In addition, the half-maximal inhibitory concentration (IC50) with HepG2 is more than 100 µM.
